Reference: the NIST ThermoML archive (doi:10.1016/j.jct.2016.03.026)

Experiment: xn = mol fraction of the nth substance listed
Conditions: Fluid (supercritical or subcritical phases), Vibrating tube method, x1 = 0.97

O=C=O [carbon dioxide] + CO
Conditions | mass density [kg/m3]
304.21 K, 16700 kPa | 863.76
304.21 K, 16725 kPa | 864.02
304.21 K, 16750 kPa | 864.2
304.21 K, 16775 kPa | 864.47
304.21 K, 16800 kPa | 864.63
304.21 K, 16825 kPa | 864.86
304.21 K, 16850 kPa | 865.05
304.21 K, 16875 kPa | 865.26
304.21 K, 16900 kPa | 865.51
304.21 K, 16925 kPa | 865.7
304.21 K, 16950 kPa | 865.9
304.21 K, 16975 kPa | 866.12
304.21 K, 17000 kPa | 866.34
304.21 K, 17025 kPa | 866.56
304.21 K, 17050 kPa | 866.78
304.21 K, 17075 kPa | 866.99
304.21 K, 17100 kPa | 867.2
304.21 K, 17125 kPa | 867.4
304.21 K, 17150 kPa | 867.63
304.21 K, 17175 kPa | 867.77
304.21 K, 17200 kPa | 867.99
304.21 K, 17225 kPa | 868.2
304.21 K, 17250 kPa | 868.43
304.21 K, 17275 kPa | 868.66
304.21 K, 17300 kPa | 868.87
304.21 K, 17325 kPa | 869.01
304.21 K, 17350 kPa | 869.28
304.21 K, 17375 kPa | 869.42
304.21 K, 17400 kPa | 869.69
304.21 K, 17425 kPa | 869.89
304.21 K, 17450 kPa | 870.09
304.21 K, 17475 kPa | 870.29
304.21 K, 17500 kPa | 870.48
304.21 K, 17525 kPa | 870.66
304.21 K, 17550 kPa | 870.86
304.21 K, 17575 kPa | 871.06
304.21 K, 17600 kPa | 871.23
304.21 K, 17625 kPa | 871.44
304.21 K, 17650 kPa | 871.68
304.21 K, 17675 kPa | 871.84
304.21 K, 17700 kPa | 872.08
304.21 K, 17725 kPa | 872.29
304.21 K, 17750 kPa | 872.45
304.21 K, 17775 kPa | 872.68
304.21 K, 17800 kPa | 872.83
304.21 K, 17825 kPa | 873.02
304.21 K, 17850 kPa | 873.25
304.21 K, 17875 kPa | 873.48
304.21 K, 17900 kPa | 873.63
304.21 K, 17925 kPa | 873.87
304.21 K, 17950 kPa | 874.01
304.21 K, 17975 kPa | 874.23
304.21 K, 18000 kPa | 874.46
304.21 K, 18025 kPa | 874.62
304.21 K, 18050 kPa | 874.83
304.21 K, 18075 kPa | 875.05
304.21 K, 18100 kPa | 875.2
304.21 K, 18125 kPa | 875.42
304.21 K, 18150 kPa | 875.58
304.21 K, 18175 kPa | 875.78
304.21 K, 18200 kPa | 876
304.21 K, 18225 kPa | 876.22
304.21 K, 18250 kPa | 876.35
304.21 K, 18275 kPa | 876.56
304.21 K, 18300 kPa | 876.78
304.21 K, 18325 kPa | 876.99
304.21 K, 18350 kPa | 877.14
304.21 K, 18375 kPa | 877.36
304.21 K, 18400 kPa | 877.5
304.21 K, 18425 kPa | 877.73
304.21 K, 18450 kPa | 877.88
304.21 K, 18475 kPa | 878.11
304.21 K, 18500 kPa | 878.3
304.21 K, 18525 kPa | 878.46
304.21 K, 18550 kPa | 878.68
304.21 K, 18575 kPa | 878.87
304.21 K, 18600 kPa | 879.03
304.21 K, 18625 kPa | 879.24
304.21 K, 18650 kPa | 879.38
304.21 K, 18675 kPa | 879.61
304.21 K, 18700 kPa | 879.76
304.21 K, 18725 kPa | 879.99
304.21 K, 18750 kPa | 880.19
304.21 K, 18775 kPa | 880.38
304.21 K, 18800 kPa | 880.58
304.21 K, 18825 kPa | 880.78
304.21 K, 18850 kPa | 880.89
304.21 K, 18875 kPa | 881.09
304.21 K, 18900 kPa | 881.28
304.21 K, 18925 kPa | 881.49
304.21 K, 18950 kPa | 881.68
304.21 K, 18975 kPa | 881.88
304.21 K, 19000 kPa | 882.06
304.21 K, 19025 kPa | 882.19
304.21 K, 19050 kPa | 882.43
304.21 K, 19075 kPa | 882.62
304.21 K, 19100 kPa | 882.73
304.21 K, 19125 kPa | 882.92
304.21 K, 19150 kPa | 883.11
304.21 K, 19175 kPa | 883.3
304.21 K, 19200 kPa | 883.48
304.21 K, 19225 kPa | 883.65
304.21 K, 19250 kPa | 883.86
304.21 K, 19275 kPa | 884.07
304.21 K, 19300 kPa | 884.25
304.21 K, 19325 kPa | 884.43
304.21 K, 19350 kPa | 884.6
304.21 K, 19375 kPa | 884.78
304.21 K, 19400 kPa | 884.95
304.21 K, 19425 kPa | 885.12
304.21 K, 19450 kPa | 885.28
304.21 K, 19475 kPa | 885.46
304.21 K, 19500 kPa | 885.62
304.21 K, 19525 kPa | 885.78
304.21 K, 19550 kPa | 886.04
304.21 K, 19575 kPa | 886.21
304.21 K, 19600 kPa | 886.37
304.21 K, 19625 kPa | 886.54
304.21 K, 19650 kPa | 886.76
304.21 K, 19675 kPa | 886.92
304.21 K, 19700 kPa | 887.09
304.21 K, 19725 kPa | 887.24
304.21 K, 19750 kPa | 887.4
304.21 K, 19775 kPa | 887.64
304.21 K, 19800 kPa | 887.8
304.21 K, 19825 kPa | 887.96
304.21 K, 19850 kPa | 888.12
304.21 K, 19875 kPa | 888.28
304.21 K, 19900 kPa | 888.48
304.21 K, 19925 kPa | 888.67
304.21 K, 19950 kPa | 888.82
304.21 K, 19975 kPa | 888.98
304.21 K, 20000 kPa | 889.2
313.15 K, 8375 kPa | 468.68
313.15 K, 8400 kPa | 477.47
313.15 K, 8425 kPa | 486.09
313.15 K, 8450 kPa | 494.72
313.15 K, 8475 kPa | 503.03
313.15 K, 8500 kPa | 510.78
313.15 K, 8525 kPa | 518.43
313.15 K, 8550 kPa | 525.63
313.15 K, 8575 kPa | 531.85
313.15 K, 8600 kPa | 538.44
313.15 K, 8625 kPa | 544.56
313.15 K, 8650 kPa | 551.14
313.15 K, 8675 kPa | 556.46
313.15 K, 8700 kPa | 562.19
313.15 K, 8725 kPa | 566.94
313.15 K, 8750 kPa | 571.39
313.15 K, 8775 kPa | 576
313.15 K, 8800 kPa | 580.21
313.15 K, 8825 kPa | 583.78
313.15 K, 8850 kPa | 587.78
313.15 K, 8875 kPa | 591.7
313.15 K, 8900 kPa | 595.4
313.15 K, 8925 kPa | 598.87
313.15 K, 8950 kPa | 601.87
313.15 K, 8975 kPa | 604.9
313.15 K, 9000 kPa | 608.05
313.15 K, 9025 kPa | 611
313.15 K, 9050 kPa | 613.79
313.15 K, 9075 kPa | 616.51
313.15 K, 9100 kPa | 619.14
313.15 K, 9125 kPa | 621.62
313.15 K, 9150 kPa | 624.11
313.15 K, 9175 kPa | 626.69
313.15 K, 9200 kPa | 629
313.15 K, 9225 kPa | 631.2
313.15 K, 9250 kPa | 633.38
313.15 K, 9275 kPa | 635.44
313.15 K, 9300 kPa | 637.48
313.15 K, 9325 kPa | 639.32
313.15 K, 9350 kPa | 641.4
313.15 K, 9375 kPa | 643.26
313.15 K, 9400 kPa | 645.2
313.15 K, 9425 kPa | 646.98
313.15 K, 9450 kPa | 648.9
313.15 K, 9475 kPa | 650.62
313.15 K, 9500 kPa | 652.27
313.15 K, 9525 kPa | 653.94
313.15 K, 9550 kPa | 655.55
313.15 K, 9575 kPa | 657.12
313.15 K, 9600 kPa | 658.64
313.15 K, 9625 kPa | 660.18
313.15 K, 9650 kPa | 661.7
313.15 K, 9675 kPa | 663.21
313.15 K, 9700 kPa | 664.7
313.15 K, 9725 kPa | 666.14
313.15 K, 9750 kPa | 667.47
313.15 K, 9775 kPa | 668.89
313.15 K, 9800 kPa | 670.26
313.15 K, 9825 kPa | 671.58
313.15 K, 9850 kPa | 672.87
313.15 K, 9875 kPa | 674.13
313.15 K, 9900 kPa | 675.44
313.15 K, 9925 kPa | 676.66
313.15 K, 9950 kPa | 677.96
313.15 K, 9975 kPa | 679.1
313.15 K, 10000 kPa | 680.33
313.15 K, 10025 kPa | 681.48
313.15 K, 10050 kPa | 682.54
313.15 K, 10075 kPa | 683.7
313.15 K, 10100 kPa | 684.8
313.15 K, 10125 kPa | 685.84
313.15 K, 10150 kPa | 686.83
313.15 K, 10175 kPa | 687.88
313.15 K, 10200 kPa | 688.8
313.15 K, 10225 kPa | 689.94
313.15 K, 10250 kPa | 690.95
313.15 K, 10275 kPa | 691.93
313.15 K, 10300 kPa | 693
313.15 K, 10325 kPa | 693.97
313.15 K, 10350 kPa | 694.91
313.15 K, 10375 kPa | 695.92
313.15 K, 10400 kPa | 696.92
313.15 K, 10425 kPa | 697.78
313.15 K, 10450 kPa | 698.73
313.15 K, 10475 kPa | 699.66
313.15 K, 10500 kPa | 700.62
313.15 K, 10525 kPa | 701.51
313.15 K, 10550 kPa | 702.39
313.15 K, 10575 kPa | 703.29
313.15 K, 10600 kPa | 704.13
313.15 K, 10625 kPa | 705.05
313.15 K, 10650 kPa | 705.9
313.15 K, 10675 kPa | 706.75
313.15 K, 10700 kPa | 707.66
313.15 K, 10725 kPa | 708.5
313.15 K, 10750 kPa | 709.33
313.15 K, 10775 kPa | 710.14
313.15 K, 10800 kPa | 710.93
313.15 K, 10825 kPa | 711.74
313.15 K, 10850 kPa | 712.55
313.15 K, 10875 kPa | 713.33
313.15 K, 10900 kPa | 714.15
313.15 K, 10925 kPa | 714.94
313.15 K, 10950 kPa | 715.71
313.15 K, 10975 kPa | 716.52
313.15 K, 11000 kPa | 717.28
313.15 K, 11025 kPa | 718.03
313.15 K, 11050 kPa | 718.76
313.15 K, 11075 kPa | 719.52
313.15 K, 11100 kPa | 720.27
313.15 K, 11125 kPa | 720.97
